Experimental data from patent US8524759B2, “Phenylbutazone carrier formulation showing increased bioactivity in animals” (priority 2009, dated 2013).

How the values were obtained:
[1] = Bioequivalence test: blood plasma phenylbutazone levels (HPLC) after horses eat the product mixed in grain; assay type: in vivo, horse; design: unit not given here; settings: 4 g phenylbutazone in grain, oral, average of five horses
Protocol: The above product mixture was tested for bioequivalency as follows. Three healthy mature geldings and two non-pregnant mares aged 3-15 years with similar weights were chosen for a bioequivalence test. The bioequivalence test was designed to determine the difference in blood plasma absorption between commercially available phenylbutazone tablets and the inventive product mixture described above. […] At five o'clock p.m. the evening before the test, each horse was fed a normal meal consisting of 1 gallon of grain with fourteen percent protein, and ten pounds of alfalfa hay. During the test each horse was stabled separately and had access to drinking water at all times. On test day, each horse was fasted until administration of the test product, and then given a normal meal consisting of one gallon of grain with fourteen percent protein and ten pounds of alfalfa hay five hours post dosing and at twelve and one-half hours after administration. The morning of the test, 4.60 grams of the product from example one containing a total of four grams of phenylbutazone, was added to one half gallon of grain with fourteen percent protein by lightly stifling. Each horse was given 15 minutes to consume the grain. […] Each of the five horses followed this procedure. Two hours following administration a 4.5 cc blood sample was taken from each of the five horses. Thereafter, additional 4.5 cc blood samples were taken at half-hour intervals until the sixth hour. After the sixth hour 4.5 cc blood samples were taken hourly until the eighth hour. […] The blood samples were taken with a 20 gauge one inch needle and promptly put into a green CST Lithium Heparin tubes and cooled in ice water at 36 degrees F. When each sample was collected, the blood sample was spun to separate the blood plasma from each sample. The separated blood plasma was placed in a freezer for twenty-four hours at 20 below zero. After twenty-four hours, the blood plasma was thawed to room temperature and phenylbutazone levels were quantified for each sample by a validated HPLC method. Two weeks later after completing a wash out period, the same three healthy mature geldings and two non-pregnant mares aged 3-15 years with similar weights were used for a cross over bioequivalence test. This bioequivalence test was to determine the concentration levels in blood plasma absorption of commercially available phenylbutazone tablets. […] At five o'clock p.m. the evening before the test, each horse was fed a normal meal consisting of 1 gallon of grain with fourteen percent protein, and ten pounds of alfalfa hay. During the test each horse was stabled separately and had access to drinking water at all times. On test day, each horse was fasted until administration of the test product (4 grams of crushed active ingredient phenylbutazone in tablets), and then given a normal meal consisting of one gallon of grain with fourteen percent protein and ten pounds of alfalfa hay five hours post dosing, and at twelve and one-half hours after administration. The morning of the test, four 1 gram tablets of the commercially available phenylbutazone were crushed in to a fine powder, and were added to one half gallon of grain with fourteen percent protein by lightly stifling for each horse. Each horse was given 15 minutes to consume the grain. […] Each of the five horses followed this procedure. Two hours following administration a 4.5 cc blood sample was taken from each of the five horses. Thereafter, additional 4.5 cc blood samples were taken at half-hour intervals until the sixth hour. After the sixth hour 4.5 cc blood samples were taken hourly until the eighth hour. […] The blood samples were taken with a 20 gauge one inch needle and promptly put into a green CST Lithium Heparin tubes and cooled in ice water at 36 degrees F. When each sample was collected, the blood sample was spun to separate the blood plasma from each sample. The separated blood plasma was placed in a freezer for twenty-four hours at 20 below zero. […]

[2] = oral administration; cited from earlier work

- blood plasma concentration of phenylbutazone ([1]; 2 hours after eating): 5.0
- blood plasma concentration of phenylbutazone ([1]; 3 hours after eating): 6.0
- blood plasma concentration of phenylbutazone ([1]; 4 hours after eating): 8.5
- blood plasma concentration of phenylbutazone ([1]; 5 hours after eating): 10.1
- blood plasma concentration of phenylbutazone ([1]; 6 hours after eating): 12.0
- blood plasma concentration of phenylbutazone ([1]; 7 hours after eating): 13.0
- blood plasma concentration of phenylbutazone ([1]; 8 hours after eating): 12.14
- blood plasma concentration of phenylbutazone ([1]; 10 hours after eating): 9.9
- blood plasma concentration of phenylbutazone ([1]; 12 hours after eating): 7.3
- blood plasma concentration of phenylbutazone ([1]; 18 hours after eating): 4.18
SMILES: CCCCC1C(=O)N(c2ccccc2)N(c2ccccc2)C1=O [Pure Phenylbutazone, 4-butyl-diphenyl-3,5-pyrazoidinedione]
- time required to achieve an effective concentration level [2]: 3 to 5 h
